Assay: xn = mol fraction of the nth substance listed
Details: 101 kPa, Liquid; for viscosity: Capillary tube (Ostwald / Ubbelohde) method

CC(=O)O [acetic acid] + CN(C)C=O
Details	mass density [kg/m3]	viscosity [mPa·s]
303.15 K, x1 = 0.1004	950.1	0.847
303.15 K, x1 = 0.2009	961.18	0.967
303.15 K, x1 = 0.3012	972.65	1.108
303.15 K, x1 = 0.4014	984.49	1.283
303.15 K, x1 = 0.5014	996.33	1.457
303.15 K, x1 = 0.6014	1007.74	1.613
303.15 K, x1 = 0.7011	1018.12	1.656
303.15 K, x1 = 0.8008	1027.13	1.582
303.15 K, x1 = 0.9006	1034.47	1.375
303.15 K, x1 = 1	1038.66	1.059
313.15 K, x1 = 0.1004	940.75	0.75
313.15 K, x1 = 0.2009	951.76	0.848
313.15 K, x1 = 0.3012	963.18	0.973
313.15 K, x1 = 0.4014	974.95	1.112
313.15 K, x1 = 0.5014	986.68	1.249
313.15 K, x1 = 0.6014	997.98	1.357
313.15 K, x1 = 0.7011	1008.11	1.39
313.15 K, x1 = 0.8008	1016.84	1.331
313.15 K, x1 = 0.9006	1023.84	1.166
313.15 K, x1 = 1	1027.37	0.92
323.15 K, x1 = 0.1004	931.27	0.669
323.15 K, x1 = 0.2009	942.27	0.752
323.15 K, x1 = 0.3012	953.63	0.85
323.15 K, x1 = 0.4014	965.33	0.965
323.15 K, x1 = 0.5014	976.95	1.071
323.15 K, x1 = 0.6014	988.11	1.157
323.15 K, x1 = 0.7011	998.02	1.18
323.15 K, x1 = 0.8008	1006.49	1.132
323.15 K, x1 = 0.9006	1013.13	1.002
323.15 K, x1 = 1	1016.08	0.804
333.15 K, x1 = 0.1004	921.19	0.597
333.15 K, x1 = 0.2009	932.18	0.673
333.15 K, x1 = 0.3012	943.49	0.755
333.15 K, x1 = 0.4014	955.11	0.843
333.15 K, x1 = 0.5014	966.55	0.935
333.15 K, x1 = 0.6014	977.59	0.998
333.15 K, x1 = 0.7011	987.28	1.015
333.15 K, x1 = 0.8008	995.48	0.976
333.15 K, x1 = 0.9006	1001.78	0.87
333.15 K, x1 = 1	1005.04	0.709
343.15 K, x1 = 0.1004	911.56	0.547
343.15 K, x1 = 0.2009	922.54	0.607
343.15 K, x1 = 0.3012	933.82	0.674
343.15 K, x1 = 0.4014	945.35	0.749
343.15 K, x1 = 0.5014	956.68	0.824
343.15 K, x1 = 0.6014	967.55	0.873
343.15 K, x1 = 0.7011	977.06	0.885
343.15 K, x1 = 0.8008	984.99	0.852
343.15 K, x1 = 0.9006	990.93	0.764
343.15 K, x1 = 1	993.69	0.632
353.15 K, x1 = 0.1004	901.58	0.499
353.15 K, x1 = 0.2009	912.55	0.551
353.15 K, x1 = 0.3012	923.82	0.608
353.15 K, x1 = 0.4014	935.28	0.67
353.15 K, x1 = 0.5014	946.48	0.73
353.15 K, x1 = 0.6014	957.19	0.771
353.15 K, x1 = 0.7011	966.49	0.78
353.15 K, x1 = 0.8008	974.17	0.751
353.15 K, x1 = 0.9006	979.73	0.677
353.15 K, x1 = 1	982.95	0.57

O=CO [formic acid] + CN(C)C=O
Details	mass density [kg/m3]	viscosity [mPa·s]
303.15 K, x1 = 0.1001	953.65	0.831
303.15 K, x1 = 0.2	969.23	0.93
303.15 K, x1 = 0.3001	986.66	1.048
303.15 K, x1 = 0.4	1006.16	1.186
303.15 K, x1 = 0.4999	1027.99	1.324
303.15 K, x1 = 0.6003	1053.17	1.466
303.15 K, x1 = 0.7005	1081.71	1.555
303.15 K, x1 = 0.7998	1115.25	1.562
303.15 K, x1 = 0.9002	1157.02	1.533
303.15 K, x1 = 1	1205.07	1.437
313.15 K, x1 = 0.1001	943.97	0.738
313.15 K, x1 = 0.2	959.57	0.815
313.15 K, x1 = 0.3001	977.07	0.92
313.15 K, x1 = 0.4	996.43	1.028
313.15 K, x1 = 0.4999	1018.12	1.143
313.15 K, x1 = 0.6003	1043.03	1.253
313.15 K, x1 = 0.7005	1071.28	1.313
313.15 K, x1 = 0.7998	1104.39	1.342
313.15 K, x1 = 0.9002	1145.58	1.33
313.15 K, x1 = 1	1192.81	1.205
323.15 K, x1 = 0.1001	934.86	0.662
323.15 K, x1 = 0.2	950.34	0.725
323.15 K, x1 = 0.3001	967.77	0.808
323.15 K, x1 = 0.4	986.86	0.898
323.15 K, x1 = 0.4999	1008.39	0.992
323.15 K, x1 = 0.6003	1033.04	1.076
323.15 K, x1 = 0.7005	1060.99	1.121
323.15 K, x1 = 0.7998	1093.73	1.14
323.15 K, x1 = 0.9002	1134.05	1.117
323.15 K, x1 = 1	1180.63	1.022
333.15 K, x1 = 0.1001	924.58	0.59
333.15 K, x1 = 0.2	939.91	0.649
333.15 K, x1 = 0.3001	957.33	0.72
333.15 K, x1 = 0.4	976.15	0.793
333.15 K, x1 = 0.4999	997.5	0.867
333.15 K, x1 = 0.6003	1021.94	0.933
333.15 K, x1 = 0.7005	1049.51	0.971
333.15 K, x1 = 0.7998	1081.77	0.982
333.15 K, x1 = 0.9002	1121.74	0.959
333.15 K, x1 = 1	1167.44	0.879
343.15 K, x1 = 0.1001	915.36	0.538
343.15 K, x1 = 0.2	930.7	0.587
343.15 K, x1 = 0.3001	947.93	0.643
343.15 K, x1 = 0.4	966.58	0.708
343.15 K, x1 = 0.4999	987.75	0.768
343.15 K, x1 = 0.6003	1011.92	0.823
343.15 K, x1 = 0.7005	1039.13	0.85
343.15 K, x1 = 0.7998	1070.96	0.857
343.15 K, x1 = 0.9002	1110.03	0.835
343.15 K, x1 = 1	1154.99	0.766
353.15 K, x1 = 0.1001	905.11	0.492
353.15 K, x1 = 0.2	920.26	0.534
353.15 K, x1 = 0.3001	937.3	0.582
353.15 K, x1 = 0.4	955.9	0.635
353.15 K, x1 = 0.4999	976.91	0.693
353.15 K, x1 = 0.6003	1000.84	0.732
353.15 K, x1 = 0.7005	1027.78	0.754
353.15 K, x1 = 0.7998	1059.18	0.756
353.15 K, x1 = 0.9002	1097.86	0.736
353.15 K, x1 = 1	1142.08	0.677

From the NIST ThermoML archive (doi:10.1021/je700755t)
